Laboratory results from patent EP0225272A1, “1-Methyl-15-alpha-alkyl-androsta-1,4-diene-3,17-diones, process for their preparation and pharmaceutical compositions containing them” (SCHERING AKTIENGESELLSCHAFT, priority 1985, dated 1987).

Columns and labels:
[1] = target: T1, Aromataseaktivität (Rattus norvegicus, UniProt P22443); assay: PMSG test: serum estradiol in PMSG-pretreated infantile female rats (radioimmunoassay); format: in vivo, Ratte; conditions: for Östradiol-Konzentration: peripheral serum, PMSG-pretreated rat, mean ± SD, n=10
T1 construct: Infantile weibliche Ratten reagieren auf PMSG (Pregnant Mare's Serum Gonadotropin)-Behandlung mit einheitlich erhöhter Steroidsynthese; from tissue; host or cells: living infantile female rats (in vivo); serum estradiol measured by radioimmunoassay
T1 sequence (P22443 1-508): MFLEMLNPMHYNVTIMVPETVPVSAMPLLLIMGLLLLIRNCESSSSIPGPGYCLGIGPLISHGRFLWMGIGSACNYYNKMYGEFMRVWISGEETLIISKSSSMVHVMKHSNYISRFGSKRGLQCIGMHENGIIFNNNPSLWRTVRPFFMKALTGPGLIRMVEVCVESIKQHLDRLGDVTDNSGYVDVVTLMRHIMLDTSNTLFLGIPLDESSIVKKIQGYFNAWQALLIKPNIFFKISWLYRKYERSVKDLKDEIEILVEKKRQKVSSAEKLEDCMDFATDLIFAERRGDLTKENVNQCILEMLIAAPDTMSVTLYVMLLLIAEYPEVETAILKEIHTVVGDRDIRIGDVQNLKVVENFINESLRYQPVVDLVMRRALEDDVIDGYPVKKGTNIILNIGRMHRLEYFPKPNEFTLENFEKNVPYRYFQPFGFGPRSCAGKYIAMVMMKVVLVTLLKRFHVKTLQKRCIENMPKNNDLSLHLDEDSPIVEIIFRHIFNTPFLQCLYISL
Procedure: Infantile weibliche Ratten reagieren auf PMSG (Pregnant Mare's Serum Gonadotropin)-Behandlung mit einheitlich erhöhter Steroidsynthese. Die Aromataseaktivität kann durch die Beeinflussung der PMSG-stimulierten Ostrogenbildung gemessen werden.
Im sogenannten PMSG-Test werden 21 Tage alte weibliche Ratten alle 2 Tage insgesamt 7 mal mit je 100 I.U. PMSG subkutan vorbehandelt. 1 Stunde vor und 8 Stunden nach der letzten PMSG-Applikation (d12) erhalten die Tiere die Testsubstanz in 0,1 ml Benzylbenzoat/Rizinusöl (1+9) durch subkutane Injektion. Die Kontrolltiere erhalten nur das Vehikel. 24 Stunden nach der letzten PMSG-Applikation werden die Tiere getötet. Im Serum wird Östradiol radioimmunologisch geprüft. Für jede Gruppe von 10 Tieren wird der Mittelwert der Östradiolkonzentration in nMol/1 mit der Standardabweichung errechnet. Die Signifikanzen der Unterschiede zur Kontrollgruppe werden durch die Varianzanalyse geprüft.
Zur Ermittlung der relativen Wirkungsstärke der zu testenden Substanz im Vergleich zu der Standardsubstanz wird die Regressions- und Kovarianzanalyse durchgeführt. Ferner wird die prozentuale Hemmung gegen die PMSG-Kontrolle berechnet.

[2] = system: Östruszyklus der Ratte; assay: Influence of aromatase inhibitors on the estrous cycle of the rat (Allen-Doisy smear technique); format: in vivo, Ratten (SPF-Wistar)
Excerpt: In einem weiteren Test wird der Einfluß von Aromatasehemmern auf den Östruszyklus der Ratte bestimmt.
Die Substanzen, die die Östrogenbiosynthese bzw. die Wirkung von Östrogenen hemmen, führen zu einer Störung des Östruszyklus bei Nagern.
Verwendet werden weibliche Ratten (SPF-Wistar) von ca. 180 g Körpergewicht. Pro Gruppe werden 10 Tiere eingesetzt. Der Zyklus wird mittels der Allen-Doisy-Abstrichtechnik täglich untersucht. Es werden zwei aufeinanderfolgende Zyklen verfolgt. Nur Tiere mit einem regelmäßigen 4-Tage-Zyklus kommen in den Versuch. Am Tage des Metöstrus werden die Tiere einmal mit der Testsubstanz (20 mg/Tier) subcutan behandelt. Die Testsubstanz wird dabei in einer 0.9%igen Kochsalzlösung mit Myrj-53^(R) (0.085%) suspendiert (0,5 ml/Dosis). Die Kontrolltiere werden nicht behandelt. Der Versuch wird beendet. wenn alle behandelten Tiere wieder normale Zyklen aufweisen.

| Compound | Dosis, mit der eine Hemmung der Östradiol-Konzentration beobachtet wird ([1]; lowest dose with inhibition, given 2 x s.c.) | Östradiol-Konzentration ([1]; dose 0,1 mg/Tier 2 x s.c.) | Östradiol-Konzentration ([1]; dose 0,3 mg/Tier 2 x s.c.) | Östradiol-Konzentration ([1]; dose 1,0 mg/Tier 2 x s.c.) | Östradiol-Konzentration ([1]; dose 3,0 mg/Tier 2 x s.c.) | Dauer der Störung des Zyklus (Durchschnitt) ([2]; single s.c. 20 mg/Tier, average) [Tage] | Zykluslänge der meisten behandelten Tiere ([2]; single s.c. 20 mg/Tier, untreated animals regular 4-day cycle) | Wirkung auf den Zyklus ([2]; single s.c. treatment 20 mg/Tier at metestrus, effect starts right after treatment) |
| --- | --- | --- | --- | --- | --- | --- | --- | --- |
| C[C@]12CCC(=O)C(O)=C1CC[C@@H]1[C@@H]2CC[C@]2(C)C(=O)CC[C@@H]12 [A, 4-Hydroxy-4-androsten-3,17-dion] | 1,0 mg | 3,98 ± 1,12 nMol/l | 3,84 ± 0,84 nMol/l | 1,94 ± 0,62 nMol/l | 0,98 ± 0,19 nMol/l |  |  |  |
| CC(=O)O[C@@H](C)[C@H]1CC(=O)[C@@]2(C)CC[C@H]3[C@@H](CCC4=CC(=O)C=C(C)[C@@]43C)[C@H]12 [B] |  | 2,11 ± 0,39 nMol/l | 0,62 ± 0,13 nMol/l | 0,54 ± 0,07 nMol/l | 0,36 ± 0,06 nMol/l |  |  |  |
| CCCC(=O)OC(C)C1CC(=O)C2(C)CCC3C(CCC4=CC(=O)C=C(C)C43C)C12 (stereo not drawn) [C, 15a-(1S-Butyryloxy-ethyl)-1-methyl-androsta-1.4-dien-3,17-dion] |  |  |  |  |  | ~15 | 5-Tage-Zyklus | Störung des Zyklus |
